# Tested on: RP-B-02 spheroids
# Test: 3D spheroid growth assay RP-B-02
# Format: cell-based, human
# Settings: p<0.05
# Source text: RP-B-01 and RP-B-02 cells were resuspended in normal growth media containing 3% Reduced Growth Factor Matrigel (BD Biosciences) at a cell density of 1,500 and 3,000 cells/well, respectively and plated in ultra-low adherence 96-well plates (Corning).
# Spheroids were allowed to form and then treated on days 4, 8, and 12 following plating with media containing 5% serum, 3% Reduced Growth Factor Matrigel, and APE1/Ref-1 inhibitors. Vehicle control, DMSO, was less than 0.01% of the volume, and was equivalent in each well. On Day 15, Alamar blue reagent (LifeTechnologies) was added to each well (10 μL/well) and incubated for 24 hours.
# In order to mimic tumor growth more accurately in a relevant microenvironment and in a more robust model for predicting response to treatment, a three-dimensional (3D) culture model of patient-derived RP-B-01 and RP-B-02 bladder cancer cells was used. Both RP-B-01 and RP-B-02 cell lines are transitional cell carcinoma staged as T4bN1Mx and T2bN0Mx Grade III tumors, respectively.
smiles,measurement,value
"CCC/C(=C\C1=C(OC)C(=O)c2ccccc2C1=O)C(=O)N(CC)CC [APX2009, [(2E)-2-[(3-methoxy-1,4-dioxo-1,4-dihydronaphthalen-2-yl)methylidene]-N,N-diethylpentanamide]]",potency in RP-B-02 cells in 3D culture relative to APX3330,more potent in the RP-B-02 cells than parent compound APX3330
